The EC50 is the concentration needed to bring the measured effect to its halfway point. The low end stands for higher potency in that assay, the high end for lower potency in that assay.

Among the data in patent US12440496B2, “Natriuretic peptide receptor a agonists useful for the treatment of cardiometabolic diseases, kidney disease and diabetes” (Merck Sharp & Dohme LLC, priority 2019, dated 2025) are EC50 values, retold here.

Molecules are shown by their SMILES. Where a name gives a salt, the structure may show the parent alone.

The target of the experiment is T1, hNPRA (Homo sapiens, UniProt P16066).
T1 construct: expressed in transfected cells
T1 sequence (P16066 33-1061): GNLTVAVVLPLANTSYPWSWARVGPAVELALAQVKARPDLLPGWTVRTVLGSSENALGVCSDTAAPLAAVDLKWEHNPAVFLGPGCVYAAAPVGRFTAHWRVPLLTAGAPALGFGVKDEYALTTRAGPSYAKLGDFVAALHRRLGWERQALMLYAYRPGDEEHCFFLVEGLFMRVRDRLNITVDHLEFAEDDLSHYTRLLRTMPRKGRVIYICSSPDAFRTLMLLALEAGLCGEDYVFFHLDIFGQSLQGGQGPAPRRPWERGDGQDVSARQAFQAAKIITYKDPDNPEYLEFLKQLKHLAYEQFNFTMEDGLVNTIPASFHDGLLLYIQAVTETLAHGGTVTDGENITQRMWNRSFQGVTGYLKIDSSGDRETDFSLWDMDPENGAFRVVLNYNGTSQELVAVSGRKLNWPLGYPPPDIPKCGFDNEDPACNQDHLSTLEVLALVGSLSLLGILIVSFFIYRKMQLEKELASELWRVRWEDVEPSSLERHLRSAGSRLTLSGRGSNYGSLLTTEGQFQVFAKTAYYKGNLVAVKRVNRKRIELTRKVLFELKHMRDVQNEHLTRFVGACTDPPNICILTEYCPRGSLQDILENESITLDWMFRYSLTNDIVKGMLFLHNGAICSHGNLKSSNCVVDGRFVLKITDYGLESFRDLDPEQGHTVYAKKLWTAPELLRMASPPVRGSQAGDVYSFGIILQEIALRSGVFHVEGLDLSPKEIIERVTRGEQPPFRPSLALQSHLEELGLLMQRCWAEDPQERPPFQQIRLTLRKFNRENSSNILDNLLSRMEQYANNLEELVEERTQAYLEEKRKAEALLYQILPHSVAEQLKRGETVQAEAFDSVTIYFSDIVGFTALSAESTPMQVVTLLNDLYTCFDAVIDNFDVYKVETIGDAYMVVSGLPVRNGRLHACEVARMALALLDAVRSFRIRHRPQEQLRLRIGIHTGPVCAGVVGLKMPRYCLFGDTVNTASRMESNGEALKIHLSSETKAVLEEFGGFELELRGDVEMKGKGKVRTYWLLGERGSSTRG
As to the kind of experiment: NPRA Functional Cell Assay (cGMP HTRF, NPRA HEK JumpIn stable cells). It is filed as cell-based. The settings on record: cGMP production, 1 hour at 37° C., 10-point dose response. The essentials: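 cGMP HTRF read-out after 1 hour compound treatment at 37° C. of human NPRA-expressing HEK JumpIn cells, 1500 cells/well, in buffer with phosphodiesterase inhibitors IBMX and RO20 (100 uM each). Signal converted to [cGMP] by calibration curve; EC50s fitted by 4-parameter logistic; 50 nM h-ANP as positive response.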
(In TR-FRET formats the signal depends on donor and acceptor labels being close together.)
Turning to `CN(CCO)CC[C@@H](NC(=O)c1nc2cc3c(nc2s1)CC[C@H](C(C)(C)C)C3)c1ccc(NS(=O)(=O)N(C)C)nc1` (racemic) [Example 206, 2-hydroxyethyl-methyl-[rac-(3R)-3-[6-(dimethylsulfamoylamino)-3-pyridyl]-3-[[rac-(7S)-7-tert-butyl-5,6,7,8-tetrahydrothiazolo[5,4-b]quinoline-2-carbonyl]amino]propyl]ammonium; 2,2,2-trifluoroacetate], the EC50 amounted to 674 nM.

`CC(C)(C)[C@H]1CCc2nc3sc(C(=O)N[C@H](CCN(CCO)CCO)c4ccc(-c5ccc(=O)[nH]c5)cc4)cc3cc2C1` (racemic) [Example 34, rac-(6S)-6-tert-butyl-N-[rac-(1R)-3-[bis(2-hydroxyethyl)amino]-1-[4-(6-oxo-1H-pyridin-3-yl)phenyl]propyl]-5,6,7,8-tetrahydrothieno[2,3-b]quinoline-2-carboxamide] showed an EC50 of 530 nM.

Compound `Cn1nccc1-c1ccc([C@@H](CCN2CCC(O)CC2)NC(=O)c2nc3cc4c(nc3s2)CC[C@H](C(C)(C)C)C4)cc1` (racemic) [Example 81, rac-(7S)-7-tert-butyl-N-[rac-(1R)-3-(4-hydroxypiperidin-1-ium-1-yl)-1-[4-(2-methylpyrazol-3-yl)phenyl]propyl]-5,6,7,8-tetrahydrothiazolo[5,4-b]quinoline-2-carboxamide; formate] had a concentration for a half-maximal effect (EC50) of 914 nM.

As to `CC(C)(C)[C@H]1CCc2nc3sc(C(=O)N[C@H](CCN4CC(O)C4)c4ccccc4)cc3cc2C1` [Example 256, (6S)-6-tert-butyl-N-[(1R)-3-(3-hydroxyazetidin-1-yl)-1-phenylpropyl]-5,6,7,8-tetrahydrothieno[2,3-b]quinoline-2-carboxamide], the half-maximal effective concentration (EC50) worked out at 3100 nM.

Turning to `CC(C)(C)[C@H]1CCc2nc3sc(C(=O)N[C@H](CCN4CCC(O)CC4)c4cccc(C(=O)NCCO)c4)nc3cc2C1` (racemic) [Example 151, rac-(7S)-7-tert-butyl-N-[rac-(1R)-1-[3-(2-hydroxyethylcarbamoyl)phenyl]-3-(4-hydroxy-1-piperidyl)propyl]-5,6,7,8-tetrahydrothiazolo[5,4-b]quinoline-2-carboxamide], the concentration for a half-maximal effect (EC50) is 682 nM.

With `CC(C)(C)[C@H]1CCc2nc3sc(C(=O)N[C@H](CCN4CCC(c5nn[nH]n5)C4)c4ccc(-c5ccc(=O)[nH]c5)cc4)cc3cc2C1` (mixture of isomers) [Example 58, rac-(6S)-6-tert-butyl-N-[rac-(1R)-1-[4-(6-oxo-1H-pyridin-3-yl)phenyl]-3-[3-(2H-tetrazol-5-yl)pyrrolidin-1-ium-1-yl]propyl]-5,6,7,8-tetrahydrothieno[2,3-b]quinoline-2-carboxamide;formate], it took 915 nM to reach a half-maximal effect (EC50).

Consider `Cn1cnnc1-c1ccc([C@@H](CCN2CCC(O)CC2)NC(=O)c2nc3cc4c(nc3s2)CC[C@H](C(C)(C)C)C4)cc1` (racemic) [Example 170, rac-(7S)-7-tert-butyl-N-[rac-(1R)-3-(4-hydroxy-1-piperidyl)-1-[4-(4-methyl-1,2,4-triazol-3-yl)phenyl]propyl]-5,6,7,8-tetrahydrothiazolo[5,4-b]quinoline-2-carboxamide], for which the EC50 was 863 nM.

In the case of `CC(C)(C)[C@H]1CCc2nc3sc(C(=O)N[C@H](CCN4CCC(O)CC4)c4cccc(C(=O)N5CCC6NCCC65)c4)nc3cc2C1` (mixture of isomers) [Example 146, rac-(7S)-7-tert-butyl-N-[rac-(1R)-1-[3-(2,3,3a,5,6,6a-hexahydro-1H-pyrrolo[3,2-b]pyrrole-4-carbonyl)phenyl]-3-(4-hydroxy-1-piperidyl)propyl]-5,6,7,8-tetrahydrothiazolo[5,4-b]quinoline-2-carboxamide], the concentration for a half-maximal effect (EC50) is 607 nM.

The compound `CC1([C@H]2CCc3nc4sc(C(=O)N[C@H](CCN5CCC(O)CC5)c5ccc(-c6c[nH]c(=O)c(F)c6)cc5)nc4cc3C2)CC1` [Example 234, (S)-N-((R)-1-(4-(5-fluoro-6-oxo-1,6-dihydropyridin-3-yl)phenyl)-3-(4-hydroxypiperidin-1-yl)propyl)-7-(1-methylcyclopropyl)-5,6,7,8-tetrahydrothiazolo[5,4-b]quinoline-2-carboxamide] displayed a 50% effective concentration (EC50) of 120 nM.

Regarding `CC(C)(C)[C@H]1CCc2nc3sc(C(=O)N[C@H](CCN4CCC(O)CC4)c4cccc(C(=O)N5CC(N)C5)c4)nc3cc2C1` (racemic) [Example 147, rac-(7S)-7-tert-butyl-N-[rac-(1R)-1-[3-(3-aminoazetidine-1-carbonyl)phenyl]-3-(4-hydroxy-1-piperidyl)propyl]-5,6,7,8-tetrahydrothiazolo[5,4-b]quinoline-2-carboxamide], the half-maximal effective concentration (EC50) worked out at 640 nM.

Regarding `CC(C)(C)[C@H]1CCc2nc3sc(C(=O)N[C@H](CCN4CCCC5(CC5)C4)c4cccc(NS(C)(=O)=O)c4)cc3cc2C1` (racemic) [Example 13, ammonium; methylsulfonyl-[3-[rac-(1R)-3-(5-azaspiro[2.5]octan-5-yl)-1-[[rac-(6S)-6-tert-butyl-5,6,7,8-tetrahydrothieno[2,3-b]quinoline-2-carbonyl]amino]propyl]phenyl] azanide], the half-maximal effective concentration (EC50) amounted to 809 nM.

On to `CC(C)(C)[C@H]1CCc2nc3sc(C(=O)N[C@H](CCN4CCCCC4)c4ccc(-c5cncnc5)cc4)cc3cc2C1` (racemic) [Example 7, rac-(6S)-6-tert-butyl-N-[rac-(1R)-3-(1-piperidyl)-1-(4-pyrimidin-5-ylphenyl)propyl]-5,6,7,8-tetrahydrothieno[2,3-b]quinoline-2-carboxamide], for which the response was half-maximal at 2000 nM (EC50).

`CC(C)(C)[C@H]1CCc2nc3sc(C(=O)N[C@H](CCN4CCC(O)CC4)c4ccc(-c5cc[n+]([O-])nc5)cc4)nc3cc2C1` (racemic) [Example 163, rac-(7S)-7-tert-butyl-N-[rac-(1R)-3-(4-hydroxypiperidin-1-ium-1-yl)-1-[4-(1-oxidopyridazin-1-ium-4-yl)phenyl]propyl]-5,6,7,8-tetrahydrothiazolo[5,4-b]quinoline-2-carboxamide; 2,2,2-trifluoroacetate] showed an EC50 of 357 nM.

Take `CN(C)CC[C@@H](NC(=O)c1nc2cc3c(nc2s1)CC[C@H](C(C)(C)C)C3)c1ccc(-c2ccc(=O)[nH]c2)cc1` (racemic) [Example 76, rac-(7S)-7-tert-butyl-N-[rac-(1R)-3-(dimethylamino)-1-[4-(6-oxo-1H-pyridin-3-yl)phenyl]propyl]-5,6,7,8-tetrahydrothiazolo[5,4-b]quinoline-2-carboxamide]: a half-maximal effect (EC50) was put at 665 nM.

In turn, `CN1CC(NC(=O)c2cccc([C@@H](CCN3CCC(O)CC3)NC(=O)c3nc4cc5c(nc4s3)CC[C@H](C(C)(C)C)C5)c2)CCC1=O` (mixture of isomers) [Example 158, rac-(7S)-7-tert-butyl-N-[rac-(1R)-3-(4-hydroxy-1-piperidyl)-1-[3-[(1-methyl-6-oxo-3-piperidyl)carbamoyl]phenyl]propyl]-5,6,7,8-tetrahydrothiazolo[5,4-b]quinoline-2-carboxamide] returned an EC50 of 890 nM.

`CC(C)(C)[C@H]1CCc2nc3sc(C(=O)N[C@H](CCN4CCC(O)CC4)c4ccc(-c5ccc(O)cc5)cc4)nc3cc2C1` (racemic) [Example 129, rac-(7S)-7-tert-butyl-N-[rac-(1R)-1-[4-(4-hydroxyphenyl)phenyl]-3-(4-hydroxypiperidin-1-ium-1-yl)propyl]-5,6,7,8-tetrahydrothiazolo[5,4-b] quinoline-2-carboxamide; 2,2,2-trifluoroacetate] yielded a half-maximal effective concentration (EC50) of 1440 nM.

Take `O=C(N[C@H](CCN1CCC(O)CC1)c1ccc(-c2cnc(O)c(F)c2)cc1)c1nc2cc3c(nc2s1)CC[C@H](C1(C(F)(F)F)CC1)C3` [Example 235, (S)-N-((R)-1-(4-(5-fluoro-6-oxo-1,6-dihydropyridin-3-yl)phenyl)-3-(4-hydroxypiperidin-1-yl)propyl)-7-(1-(trifluoromethyl)cyclopropyl)-5,6,7,8-tetrahydrothiazolo[5,4-b]quinoline-2-carboxamide]: it took 560 nM to reach a half-maximal effect (EC50).

`CC(C)(C)[C@H]1CCc2nc3sc(C(=O)N[C@H](CCN4CCCC(O)C4)c4ccccc4)cc3cc2C1` (stereo partly drawn) [Example 251, (6S)-6-tert-butyl-N-[(1R)-3-(3-hydroxypiperidin-1-yl)-1-phenylpropyl]-5,6,7,8-tetrahydrothieno[2,3-b]quinoline-2-carboxamide] had an EC50 of 632 nM.
